# Measurements from ChEMBL document CHEMBL6087456 (J Med Chem, 2025).
# How the values were obtained:
# [1] = Cmax in overnight-fasted male Sprague-Dawley rat at 3 mg/kg, po or 1 mg/kg, iv measured upto 72 hrs by LCMS analysis; assay type: ADME, organism-based; details: in vivo
# [2] = target: Dihydroorotate dehydrogenase (quinone), mitochondrial (Homo sapiens, UniProt Q02127); experiment: Inhibition of C-terminal His6-tagged recombinant human DHODH (29 to 395 residues) N-terminally truncated soluble domain extracted from Escherichia coli phage resistant BL21-DE3 using CoQD/DHA/DCIP as substrates
# [3] = Oral bioavailability in overnight-fasted male Sprague-Dawley rat at 3 mg/kg measured upto 72 hrs by LCMS analysis; assay type: ADME, organism-based; details: in vivo
# [4] = Oral absorption in overnight-fasted male Sprague-Dawley rat at 3 mg/kg measured upto 72 hrs by LCMS analysis; assay type: ADME, organism-based; details: in vivo
# [5] = Metabolic stability in human hepatocytes assessed as intrinsic clearance at 0.5 uM measured per 1.5 million cells incubated for 240 mins by tandem quadrupole-Time of Flight MS; assay type: ADME, cell-based, Hepatocyte; details: 4 h
# [6] = Metabolic stability in human liver microsomes assessed as intrinsic clearance at 0.5 uM incubated for 60 mins in presence of NADPH by tandem quadrupole-Time of Flight MS; assay type: ADME, Microsome; details: 1 h
# [7] = Metabolic stability in Sprague-Dawley rat hepatocytes assessed as intrinsic clearance at 0.5 uM measured per 0.5 million cells incubated for 240 mins by tandem quadrupole-Time of Flight MS; assay type: ADME, cell-based, Hepatocyte; details: 4 h
# [8] = Kinetic solubility of compound at pH 6.5 measured after 30 mins by nephelometry; assay type: physicochemical; details: buffer; for solubility kinetic at 0.5 h: pH 6.5, read-out: Kinetic_solubility
# Albumin = Albumin (Homo sapiens, UniProt P02768); experiment: Protein binding to albumin (unknown origin) in ALBUMAX medium; assay type: ADME; details: read-out: PB (converted)
# Plasmodium falciparum [9] = experiment: Antiparasitic activity against asexual blood stage Plasmodium falciparum 3D7 incubated for 72 hrs by SYBR Green assay; assay type: functional, organism-based; details: 3D7, 72 h
# [10] = Ratio of drug concentration in Sprague-Dawley rat brain to plasma at 1 uM measured for 5 to 60 mins by LCMS analysis; assay type: ADME, cell-free; details: time 5-60 min
# [11] = Protein binding in human hepatocytes; assay type: ADME, cell-based, Hepatocyte; details: read-out: PB (converted)
# [12] = Half life in overnight-fasted male Sprague-Dawley rat at 3 mg/kg, po or 1 mg/kg, iv measured upto 72 hrs by LCMS analysis; assay type: ADME, organism-based; details: in vivo
# [13] = Plasma protein binding in rat measured for 6 hrs by rapid equilibrium dialysis; assay type: ADME, cell-free
# [14] = Plasma protein binding in human measured for 6 hrs by rapid equilibrium dialysis; assay type: ADME, cell-free
# Cytochrome P450 2D6 = Cytochrome P450 2D6 (Homo sapiens, UniProt P10635); experiment: Inhibition of CYP2D6 in human liver microsomes; assay type: ADME, Microsome
# [15] = target: T1, Dihydroorotate dehydrogenase (quinone), mitochondrial (Plasmodium falciparum (isolate 3D7), UniProt Q08210); experiment: Inhibition of N-terminal His6-tagged recombinant Plasmodium falciparum DHODH (158 to 569 residues) N-terminally truncated soluble domain extracted from Escherichia coli phage resistant BL21-DE3 using CoQD/DHA/DCIP as substrates
# T1 sequence (Q08210 whole entry): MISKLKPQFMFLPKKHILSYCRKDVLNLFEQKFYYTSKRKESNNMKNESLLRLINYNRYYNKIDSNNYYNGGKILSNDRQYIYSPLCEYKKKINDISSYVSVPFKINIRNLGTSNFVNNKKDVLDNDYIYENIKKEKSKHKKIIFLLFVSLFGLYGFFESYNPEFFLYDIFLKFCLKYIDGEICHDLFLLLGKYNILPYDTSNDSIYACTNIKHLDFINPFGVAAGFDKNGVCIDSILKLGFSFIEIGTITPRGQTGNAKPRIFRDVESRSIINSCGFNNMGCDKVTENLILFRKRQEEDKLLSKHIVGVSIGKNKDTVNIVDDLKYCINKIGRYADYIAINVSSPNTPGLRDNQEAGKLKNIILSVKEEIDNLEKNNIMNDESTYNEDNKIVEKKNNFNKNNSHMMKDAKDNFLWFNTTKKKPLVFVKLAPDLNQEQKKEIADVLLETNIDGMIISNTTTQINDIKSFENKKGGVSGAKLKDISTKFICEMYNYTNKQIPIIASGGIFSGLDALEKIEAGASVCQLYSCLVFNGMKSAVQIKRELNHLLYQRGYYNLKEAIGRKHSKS
# [16] = Cytotoxicity against human Jurkat cells by Cell Titer Glo assay; assay type: toxicity, cell-based
# Cytochrome P450 2B6 = target: T2, Cytochrome P450 2B6 (Homo sapiens, UniProt P20813); experiment: Inhibition of CYP2B6 in human liver microsomes; assay type: ADME, Microsome
# T2 sequence (P20813 whole entry): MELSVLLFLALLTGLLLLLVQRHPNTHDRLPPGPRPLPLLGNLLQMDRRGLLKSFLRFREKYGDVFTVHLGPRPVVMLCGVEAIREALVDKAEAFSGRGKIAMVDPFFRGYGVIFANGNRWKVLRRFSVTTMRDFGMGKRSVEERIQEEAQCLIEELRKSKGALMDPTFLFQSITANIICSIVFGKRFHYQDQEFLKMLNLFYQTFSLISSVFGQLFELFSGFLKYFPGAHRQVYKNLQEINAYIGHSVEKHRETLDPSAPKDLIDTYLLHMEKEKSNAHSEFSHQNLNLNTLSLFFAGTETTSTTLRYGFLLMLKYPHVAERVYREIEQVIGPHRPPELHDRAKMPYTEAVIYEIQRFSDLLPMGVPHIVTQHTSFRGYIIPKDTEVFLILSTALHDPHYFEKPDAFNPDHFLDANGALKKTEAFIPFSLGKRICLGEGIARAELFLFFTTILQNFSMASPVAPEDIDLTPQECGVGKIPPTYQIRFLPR
# [17] = Partition coefficient, log D of compound at pH 7.4 measured after 24 hrs by LCMS analysis; assay type: physicochemical; details: octanol/water, pH 7.4, 24 h
# Cytochrome P450 3A4 = Cytochrome P450 3A4 (Homo sapiens, UniProt P08684); experiment: Inhibition of CYP3A4 in human liver microsomes; assay type: ADME, Microsome
# Cytochrome P450 1A2 = target: T3, Cytochrome P450 1A2 (Homo sapiens, UniProt P05177); experiment: Inhibition of CYP1A2 in human liver microsomes; assay type: ADME, Microsome
# T3 sequence (P05177 whole entry): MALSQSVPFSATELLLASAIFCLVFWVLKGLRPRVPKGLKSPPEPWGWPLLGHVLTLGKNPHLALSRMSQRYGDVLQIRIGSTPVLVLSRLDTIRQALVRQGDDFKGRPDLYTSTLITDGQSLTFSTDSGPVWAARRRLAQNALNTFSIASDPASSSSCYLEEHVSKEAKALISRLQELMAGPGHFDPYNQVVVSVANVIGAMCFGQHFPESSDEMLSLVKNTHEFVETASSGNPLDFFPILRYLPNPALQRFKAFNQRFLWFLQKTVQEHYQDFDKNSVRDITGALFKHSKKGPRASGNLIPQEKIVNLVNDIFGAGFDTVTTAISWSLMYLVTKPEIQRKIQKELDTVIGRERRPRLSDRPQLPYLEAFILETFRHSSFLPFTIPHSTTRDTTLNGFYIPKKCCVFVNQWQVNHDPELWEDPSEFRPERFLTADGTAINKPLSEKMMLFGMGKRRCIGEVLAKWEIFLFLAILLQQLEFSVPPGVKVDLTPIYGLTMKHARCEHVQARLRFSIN
# [18] = Cytotoxicity against human HepG2 cells by Cell Titer Glo assay; assay type: toxicity, cell-based
# [19] = Drug excretion in Sprague-Dawley rat urine at 1 mg/kg, iv; assay type: ADME, organism-based; details: read-out: Drug excretion
# Plasmodium falciparum [20] = experiment: Antiparasitic activity against ring-stage Plasmodium falciparum D10 transformed with yeast DHODH incubated for 72 hrs by SYBR Green assay; assay type: functional, organism-based; details: D10, 72 h
# Plasmodium falciparum [21] = experiment: Antiparasitic activity against Plasmodium falciparum 3D7 assessed as parasitic reduction ratio at 10 times EC50 pretreated for 120 hrs followed by compound removal and replacement of media without compound measured after 28 days by cell killing assay; assay type: functional
# [22] = Volume of distribution at steady state in overnight-fasted male Sprague-Dawley rat at 3 mg/kg, po or 1 mg/kg, iv measured upto 72 hrs by LCMS analysis; assay type: ADME, organism-based; details: in vivo
# Albumin, sequence (P02768 whole entry): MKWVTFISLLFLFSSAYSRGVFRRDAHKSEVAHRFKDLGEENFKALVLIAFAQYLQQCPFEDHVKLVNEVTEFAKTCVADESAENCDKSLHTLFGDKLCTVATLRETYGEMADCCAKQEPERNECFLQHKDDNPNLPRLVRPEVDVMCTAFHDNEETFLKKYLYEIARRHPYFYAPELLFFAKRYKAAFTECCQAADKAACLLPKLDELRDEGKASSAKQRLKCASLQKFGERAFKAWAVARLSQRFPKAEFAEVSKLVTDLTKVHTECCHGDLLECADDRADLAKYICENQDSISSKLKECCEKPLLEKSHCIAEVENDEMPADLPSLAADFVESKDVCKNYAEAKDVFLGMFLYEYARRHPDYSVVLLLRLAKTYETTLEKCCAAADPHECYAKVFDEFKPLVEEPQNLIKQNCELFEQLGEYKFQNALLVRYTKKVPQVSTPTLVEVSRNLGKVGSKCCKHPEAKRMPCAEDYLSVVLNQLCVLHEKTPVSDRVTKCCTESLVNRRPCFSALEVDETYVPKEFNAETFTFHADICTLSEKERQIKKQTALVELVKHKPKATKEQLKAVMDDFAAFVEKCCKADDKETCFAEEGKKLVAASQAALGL
# Dihydroorotate dehydrogenase (quinone), mitochondrial (Homo sapiens, UniProt Q02127), sequence (Q02127 whole entry, the tested form may be a part): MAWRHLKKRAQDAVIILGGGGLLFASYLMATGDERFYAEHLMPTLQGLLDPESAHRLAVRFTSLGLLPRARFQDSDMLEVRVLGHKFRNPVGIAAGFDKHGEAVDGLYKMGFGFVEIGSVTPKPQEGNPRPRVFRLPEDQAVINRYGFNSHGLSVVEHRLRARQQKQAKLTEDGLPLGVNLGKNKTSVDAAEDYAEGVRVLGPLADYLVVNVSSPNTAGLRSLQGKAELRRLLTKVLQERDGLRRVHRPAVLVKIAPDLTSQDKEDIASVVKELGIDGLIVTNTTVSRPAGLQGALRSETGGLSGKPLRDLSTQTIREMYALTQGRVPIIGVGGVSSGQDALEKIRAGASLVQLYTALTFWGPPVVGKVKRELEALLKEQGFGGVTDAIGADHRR
# Cytochrome P450 2D6, sequence (P10635 whole entry, the tested form may be a part): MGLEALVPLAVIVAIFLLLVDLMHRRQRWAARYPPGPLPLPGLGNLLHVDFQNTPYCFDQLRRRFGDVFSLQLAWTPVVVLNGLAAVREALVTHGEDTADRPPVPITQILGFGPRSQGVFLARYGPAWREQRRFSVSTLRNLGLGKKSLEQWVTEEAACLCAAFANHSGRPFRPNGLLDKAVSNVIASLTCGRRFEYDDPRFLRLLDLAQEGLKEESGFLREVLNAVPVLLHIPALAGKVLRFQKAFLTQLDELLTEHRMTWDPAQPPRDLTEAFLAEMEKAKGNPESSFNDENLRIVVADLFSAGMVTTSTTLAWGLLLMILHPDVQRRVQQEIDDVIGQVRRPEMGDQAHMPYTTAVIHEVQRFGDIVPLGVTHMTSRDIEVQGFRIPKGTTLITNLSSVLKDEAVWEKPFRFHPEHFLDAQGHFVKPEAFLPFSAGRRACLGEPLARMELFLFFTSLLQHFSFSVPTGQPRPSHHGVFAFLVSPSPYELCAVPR
# Cytochrome P450 3A4, sequence (P08684 whole entry): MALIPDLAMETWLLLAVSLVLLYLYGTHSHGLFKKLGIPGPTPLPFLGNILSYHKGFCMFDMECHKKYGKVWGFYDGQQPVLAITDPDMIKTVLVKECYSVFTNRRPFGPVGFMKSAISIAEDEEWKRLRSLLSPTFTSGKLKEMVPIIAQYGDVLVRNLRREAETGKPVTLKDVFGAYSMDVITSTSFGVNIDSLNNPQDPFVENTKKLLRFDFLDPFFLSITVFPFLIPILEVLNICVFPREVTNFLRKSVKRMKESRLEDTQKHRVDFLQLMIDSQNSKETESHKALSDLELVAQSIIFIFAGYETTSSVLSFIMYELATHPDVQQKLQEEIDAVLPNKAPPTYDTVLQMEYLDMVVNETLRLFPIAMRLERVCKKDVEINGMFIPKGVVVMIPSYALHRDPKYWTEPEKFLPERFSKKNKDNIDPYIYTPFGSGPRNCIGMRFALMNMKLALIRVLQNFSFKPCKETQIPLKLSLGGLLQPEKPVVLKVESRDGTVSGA
Fa at 72 h [4] [%],intrinsic clearance (CLint) [6] [µL/min/mg],solubility kinetic at 0.5 h [8] [µM],fraction unbound (Albumin),EC50 (Plasmodium falciparum [9]) [nM],fraction unbound [11],t1/2 [12] [h],PPB [13] [%],SMILES,IC50 [2] [nM],F [3] [%],further results
71,9,130,0.5,22,,,,CCn1cc(C2CC2)c2c(Cc3ccc(C(F)(F)F)nc3)n(C)nc2c1=O,> 100000,65,Cmax [1]: 4.4 µM; CLH [5]: 1.2 µL/min; CLH [7]: 2.3 µL/min; BPR [10]: 0.65
,3.6,40,0.821,2,,3.4,75.4,CCn1ccc2c([C@@](O)(CC)c3ccc(C(F)(F)F)nc3)n(C)nc2c1=O,,,
4.6,< 3,12.5,0.289,3,0.578,19,93,Cn1nc2c(=O)n(C3CC3)ccc2c1[C@](O)(c1cnc(C(F)(F)F)c(Cl)c1)C1CC1,> 30000,,PPB [14]: 95.8%
40,< 3,20,,7,,,,Cn1nc2c(=O)n(C3CC3)ccc2c1[C@](O)(c1ccc(C(F)(F)F)nc1)C1CC1,> 30000,,

# The next lines start with the molecule.
SMILES,Fa at 72 h [4] [%],intrinsic clearance (CLint) [6] [µL/min/mg],solubility kinetic at 0.5 h [8] [µM],fraction unbound (Albumin),EC50 (Plasmodium falciparum [9]) [nM],fraction unbound [11],t1/2 [12] [h],PPB [13] [%],IC50 [2] [nM],F [3] [%],further results
CC[C@@](N)(c1cnc(C(F)(F)F)c(Cl)c1)c1c2ccn(C3CC3)c(=O)c2nn1C,82,< 3,,0.63,3,0.574,15,,,4,"Kinetic_solubility ([8]; pH 6.5, 0.5 h): > 100 µM; BPR [10]: 0.73"
CC[C@@](N)(c1cnc(C(F)(F)F)c(Cl)c1)c1c2ncn(C3CC3)c(=O)c2nn1C,64,< 3,80,0.703,7,0.589,,,> 30000,79,IC50 (Cytochrome P450 2D6): > 20000 nM; IC50 [15]: 38 nM; CC50 [16]: > 20000 nM; IC50 (Cytochrome P450 2B6): > 20000 nM; logD [17]: 3.44; IC50 (Cytochrome P450 3A4): > 20000 nM; IC50 (Cytochrome P450 1A2): > 20000 nM; CC50 [18]: > 20000 nM; dose excreted [19]: < 1%
CC[C@@](O)(c1cnc(C(F)(F)F)c(Cl)c1)c1c2cnn(C3CC3)c(=O)c2nn1C,81,< 3,25,0.709,3,,,84.9,> 30000,80,CC50 [16]: > 20000 nM; CC50 [18]: > 20000 nM; EC50 (Plasmodium falciparum [20]): 3800 nM; PPB [14]: 78.2%; dose excreted [19]: < 1%
CCc1nc(N)nc(N)c1-c1ccc(Cl)cc1 [PYRIMETHAMINE],,,,,,,,,,,log(activity) (Plasmodium falciparum [21]): 3.5
CCn1cc(C)c2c([C@H](O)c3ccc(C(F)(F)F)nc3)n(C)nc2c1=O,,< 3,160,,22,,,,> 100000,,Vdss [22]: 2.76 L/kg; IC50 [15]: 74 nM
